The record followed here is patent US20260176265A1 (Cancer Research Technology Limited, priority 2022, published 2026).

The target of assay [1] is CtermHisTag-mEGFR Triple Mutant - C797S, L858R, T790M (Homo sapiens, UniProt P00533, C797S/L858R/T790M). The experiment in a line: TR-FRET probe displacement assay, EGFR triple mutant. Type of assay: binding. The settings on record: T790M 1.25 nM, probe 100 nM, 30 mins room temperature. In short, it runs like this: (§1)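 Probe displacement from His-tagged wild-type or triple-mutant EGFR measured by TR-FRET (excitation 337 nm, emission 490/520 nm). Compounds spanned final concentrations from 3 to 100000 nM over ten points; technical replicates, repeated twice biologically.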
Chain of CtermHisTag-mEGFR Triple Mutant - C797S, L858R, T790M (P00533 25-1210 T790M/C797S/L858R): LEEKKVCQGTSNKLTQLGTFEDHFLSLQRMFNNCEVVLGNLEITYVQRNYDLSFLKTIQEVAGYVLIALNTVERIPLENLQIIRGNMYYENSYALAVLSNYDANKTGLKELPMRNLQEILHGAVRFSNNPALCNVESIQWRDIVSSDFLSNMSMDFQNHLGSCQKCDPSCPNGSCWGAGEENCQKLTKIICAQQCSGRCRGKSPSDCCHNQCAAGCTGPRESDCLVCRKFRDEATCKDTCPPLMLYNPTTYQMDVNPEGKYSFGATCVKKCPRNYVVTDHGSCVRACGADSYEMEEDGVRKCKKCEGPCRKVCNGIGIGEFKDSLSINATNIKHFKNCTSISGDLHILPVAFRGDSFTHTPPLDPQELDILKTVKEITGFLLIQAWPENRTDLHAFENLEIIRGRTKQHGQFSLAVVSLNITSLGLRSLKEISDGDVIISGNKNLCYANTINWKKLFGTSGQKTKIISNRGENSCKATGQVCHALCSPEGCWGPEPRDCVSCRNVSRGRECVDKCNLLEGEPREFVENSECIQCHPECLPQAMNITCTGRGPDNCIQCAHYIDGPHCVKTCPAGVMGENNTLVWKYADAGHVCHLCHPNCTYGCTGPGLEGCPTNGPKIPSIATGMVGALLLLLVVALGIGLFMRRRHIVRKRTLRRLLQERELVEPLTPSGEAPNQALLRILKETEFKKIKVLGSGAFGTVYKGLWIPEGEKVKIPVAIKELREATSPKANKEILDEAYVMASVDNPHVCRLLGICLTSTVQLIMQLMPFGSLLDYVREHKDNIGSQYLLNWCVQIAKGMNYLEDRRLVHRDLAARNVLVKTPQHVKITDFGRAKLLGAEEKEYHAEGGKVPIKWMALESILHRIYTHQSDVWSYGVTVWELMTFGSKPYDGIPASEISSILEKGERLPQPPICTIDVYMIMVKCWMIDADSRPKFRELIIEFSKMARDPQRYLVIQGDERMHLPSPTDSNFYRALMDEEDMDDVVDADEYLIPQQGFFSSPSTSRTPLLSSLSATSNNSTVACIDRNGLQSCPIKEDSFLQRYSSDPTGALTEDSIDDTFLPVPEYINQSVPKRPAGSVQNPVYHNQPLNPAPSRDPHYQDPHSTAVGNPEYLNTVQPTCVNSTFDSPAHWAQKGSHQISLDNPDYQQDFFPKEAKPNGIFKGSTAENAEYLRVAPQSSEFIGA

The target in assay [2] is CtermHisTag-mEGFR Wild type (Homo sapiens, UniProt P00533). The experiment in a line: TR-FRET probe displacement assay, EGFR wild type. In kind it is binding. The settings on record: EGFR wild type 1.25 nM, probe 100 nM, 30 mins room temperature. In short, it runs like this:
as §1

Assay [3] deals with T1, Phospho-EGFR (Tyr1068) in H1975 cells (Homo sapiens, UniProt P00533, L858R/T790M).
T1 construct: host or cells: H1975
The experiment in a line: HTRF pEGFR/total EGFR assay in H1975 cells. In kind it is cell-based. To be noted: compound 3 hours, ratio pEGFR/total EGFR. The essentials: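 H1975 cells (EGFR L858R/T790M) adhered 24 h, then compound-treated for 3 h in duplicate, 0.1% DMSO final. Lysates read by HTRF at 665/620 nm for phospho-Tyr1068 and total EGFR. Value is pEGFR/total EGFR ratio as % of 0 uM control.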

Assay [4] concerns the target T2, Phospho-EGFR (Tyr1068) in H1975 C797S cells (Homo sapiens, UniProt P00533, C797S/L858R/T790M).
T2 construct: endogenous in cells; host or cells: H1975 C797S (CRISPR-edited in house from ATCC CRL-5908)
The experiment in a line: HTRF pEGFR/total EGFR assay in H1975 C797S cells. In kind it is cell-based. The settings on record: H1975 C797S cells (CRISPR), compound 3 hours, ratio pEGFR/total EGFR. The essentials: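 Phospho-EGFR (Tyr1068) and total EGFR were measured by HTRF (665 and 620 nm) in lysates of NGS-validated H1975 EGFR C797S cells. Cells were dosed for 3 h in duplicate, 0.1% DMSO final. Read-out is the pEGFR/total EGFR ratio relative to the 0 uM control, as percent.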
(In general: TR-FRET usually uses a lanthanide donor and a delayed reading to cut background.)

Assay [5] addresses T3, Phospho-EGFR (Tyr1068) in A431 cells (Homo sapiens, UniProt P00533).
T3 construct: endogenous in cells; host or cells: A431
The experiment in a line: HTRF pEGFR/total EGFR assay in A431 cells (EGF stimulated). To be noted: compound 2.5 hours then 100 ng/ml EGF 30 mins, ratio pEGFR/total EGFR. In kind it is cell-based. In short, it runs like this:
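HTRF readout (665 and 620 nm) of Tyr1068-phosphorylated versus total EGFR in lysed A431 cells, expressed as ratio relative to 0uM control (%). Compound exposure 2.5 h in duplicate at 0.1% DMSO, with 100 ng/ml EGF added for 30 min.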

T3 sequence (P00533 25-1210): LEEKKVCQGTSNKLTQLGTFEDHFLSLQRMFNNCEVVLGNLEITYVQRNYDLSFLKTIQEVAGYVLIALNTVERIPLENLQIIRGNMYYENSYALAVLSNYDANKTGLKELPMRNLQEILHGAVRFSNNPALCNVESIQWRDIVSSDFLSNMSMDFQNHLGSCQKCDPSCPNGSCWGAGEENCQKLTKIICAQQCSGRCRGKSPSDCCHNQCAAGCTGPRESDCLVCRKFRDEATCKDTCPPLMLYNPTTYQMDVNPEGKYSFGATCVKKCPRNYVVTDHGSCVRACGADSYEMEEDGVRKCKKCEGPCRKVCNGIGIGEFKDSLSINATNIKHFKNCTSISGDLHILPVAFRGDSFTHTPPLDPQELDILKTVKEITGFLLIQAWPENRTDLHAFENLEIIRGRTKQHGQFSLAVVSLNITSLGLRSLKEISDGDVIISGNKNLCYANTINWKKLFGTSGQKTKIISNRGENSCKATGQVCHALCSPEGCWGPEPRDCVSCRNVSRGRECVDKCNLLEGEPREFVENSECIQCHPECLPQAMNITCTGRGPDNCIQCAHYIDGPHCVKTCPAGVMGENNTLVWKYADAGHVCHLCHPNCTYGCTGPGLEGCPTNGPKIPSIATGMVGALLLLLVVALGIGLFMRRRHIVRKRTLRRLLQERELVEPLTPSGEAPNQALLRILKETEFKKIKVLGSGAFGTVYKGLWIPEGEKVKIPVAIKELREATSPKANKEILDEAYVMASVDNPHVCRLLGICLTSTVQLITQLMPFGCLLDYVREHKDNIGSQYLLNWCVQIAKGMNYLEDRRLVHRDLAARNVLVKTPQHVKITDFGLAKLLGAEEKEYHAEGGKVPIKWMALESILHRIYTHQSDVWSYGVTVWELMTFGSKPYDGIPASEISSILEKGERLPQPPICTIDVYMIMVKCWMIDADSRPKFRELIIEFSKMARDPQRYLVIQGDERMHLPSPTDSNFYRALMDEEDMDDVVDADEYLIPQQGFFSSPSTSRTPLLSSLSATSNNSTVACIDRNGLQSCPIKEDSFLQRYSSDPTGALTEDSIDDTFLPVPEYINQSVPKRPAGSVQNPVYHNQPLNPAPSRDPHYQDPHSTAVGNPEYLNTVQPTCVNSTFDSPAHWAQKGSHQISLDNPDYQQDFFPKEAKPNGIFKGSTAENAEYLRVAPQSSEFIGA
Chain of CtermHisTag-mEGFR Wild type (P00533 25-1210): as above
T2 sequence (P00533 25-1210 T790M/C797S/L858R): as the sequence (P00533 25-1210 T790M/C797S/L858R) above

In general, IC50 refers to the midpoint of a concentration-inhibition curve. Take `C#Cc1cc(N2C(=O)N(C)CC2C(C)C)nc2nc(Nc3ccc(N4CCN(C)CC4)cc3)ncc12` (centres unmarked) [Example 102, 3-(5-Ethynyl-2-{[4-(4-methylpiperazin-1-yl)phenyl]amino}pyrido[2,3-d]pyrimidin-7-yl)-4-isopropyl-1-methylmidazolidin-2-one]: the IC50 was below 0.02 µM in assay [1]; 1 to 10 µM in assay [2]; above 3 µM in assay [3]; above 3 µM in assay [4]; above 3 µM in assay [5].
As to `C#Cc1cc(N2C(=O)N(C)CC23CCCC3)nc2nc(Nc3ccc(N4CCN(C5COC5)CC4)cc3)ncc12` [Example 104, 1-[5-Ethynyl-2-([4-[4-(oxetan-3-yl)piperazin-1-yl]phenyl]amino)pyrido[2,3-d]pyrimidin-7-yl]-3-methyl-1,3-diazaspiro[4.4]nonan-2-one], the IC50 in assay [1] was 0.02 to 0.1 µM; in assay [2] it was below 1 µM; in assay [3] it was 1 to 3 µM; in assay [4], 1 to 3 µM; in assay [5] it was above 3 µM.
As for `C#Cc1cc(NC(=O)NC2CCCC2)nc2nc(Nc3ccccc3N3CCCC(CS(C)(=O)=O)C3)ncc12` (centres unmarked) [Example 118, 3-Cyclopentyl-1-[5-ethynyl-2-({2-[3-(methanesulfonylmethyl)piperidin-1-yl]phenyl}amino)pyrido[2,3-d]pyrimidin-7-yl]urea], the IC50 in assay [1] is 1 to 50 µM; in assay [2], above 10 µM; in assay [3], above 3 µM; in assay [4], above 3 µM; in assay [5] it was above 3 µM.
Regarding `C#Cc1cc(NC(=O)NC2CCC2)nc2nc(Nc3ccc(N4CCN(C)CC4)cc3)ncc12` [Example 41, 3-cyclobutyl-1-(5-ethynyl-2-{[4-(4-methylpiperazin-1-yl)phenyl]amino}pyrido[2,3-d]pyrimidin-7-yl)urea], the IC50 in assay [1] was below 0.02 µM; in assay [2] it was below 1 µM; in assay [3], below 0.5 µM; in assay [4], below 0.5 µM; in assay [5], 1 to 3 µM.
